Read-outs that look alike come from different tables or passages of the source.
Legend:
EGFR Del19/T790M/C797S = EGFR Del19/T790M/C797S (Homo sapiens, UniProt P00533, C797S/DEL746-750/T790M); test: Biochemical EGFR kinase inhibition assay (Lance Ultra TR-FRET), triple mutant del19/T790M/C797S
In short: (§1)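 Kinase activity is measured by TR-FRET phosphopeptide detection. Compounds span 0.003 μM to 10 μM; the 1 h reaction at room temperature is quenched with EDTA, then labelled antibody (2 nM) is incubated 60 min before reading.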

EGFR L858R/T790M/C797S = EGFR L858R/T790M/C797S (Homo sapiens, UniProt P00533, C797S/L858R/T790M); test: Biochemical EGFR kinase inhibition assay (Lance Ultra TR-FRET), triple mutant L858R/T790M/C797S
In short: as §1

EGFR Del19/C797S = EGFR Del19/C797S (Homo sapiens, UniProt P00533, C797S/DEL746-750); test: Biochemical EGFR kinase inhibition assay (Lance Ultra TR-FRET), double mutant del19/C797S
Chain of EGFR Del19/C797S (P00533 with tags, fused parts or gaps DEL746-750/C797S): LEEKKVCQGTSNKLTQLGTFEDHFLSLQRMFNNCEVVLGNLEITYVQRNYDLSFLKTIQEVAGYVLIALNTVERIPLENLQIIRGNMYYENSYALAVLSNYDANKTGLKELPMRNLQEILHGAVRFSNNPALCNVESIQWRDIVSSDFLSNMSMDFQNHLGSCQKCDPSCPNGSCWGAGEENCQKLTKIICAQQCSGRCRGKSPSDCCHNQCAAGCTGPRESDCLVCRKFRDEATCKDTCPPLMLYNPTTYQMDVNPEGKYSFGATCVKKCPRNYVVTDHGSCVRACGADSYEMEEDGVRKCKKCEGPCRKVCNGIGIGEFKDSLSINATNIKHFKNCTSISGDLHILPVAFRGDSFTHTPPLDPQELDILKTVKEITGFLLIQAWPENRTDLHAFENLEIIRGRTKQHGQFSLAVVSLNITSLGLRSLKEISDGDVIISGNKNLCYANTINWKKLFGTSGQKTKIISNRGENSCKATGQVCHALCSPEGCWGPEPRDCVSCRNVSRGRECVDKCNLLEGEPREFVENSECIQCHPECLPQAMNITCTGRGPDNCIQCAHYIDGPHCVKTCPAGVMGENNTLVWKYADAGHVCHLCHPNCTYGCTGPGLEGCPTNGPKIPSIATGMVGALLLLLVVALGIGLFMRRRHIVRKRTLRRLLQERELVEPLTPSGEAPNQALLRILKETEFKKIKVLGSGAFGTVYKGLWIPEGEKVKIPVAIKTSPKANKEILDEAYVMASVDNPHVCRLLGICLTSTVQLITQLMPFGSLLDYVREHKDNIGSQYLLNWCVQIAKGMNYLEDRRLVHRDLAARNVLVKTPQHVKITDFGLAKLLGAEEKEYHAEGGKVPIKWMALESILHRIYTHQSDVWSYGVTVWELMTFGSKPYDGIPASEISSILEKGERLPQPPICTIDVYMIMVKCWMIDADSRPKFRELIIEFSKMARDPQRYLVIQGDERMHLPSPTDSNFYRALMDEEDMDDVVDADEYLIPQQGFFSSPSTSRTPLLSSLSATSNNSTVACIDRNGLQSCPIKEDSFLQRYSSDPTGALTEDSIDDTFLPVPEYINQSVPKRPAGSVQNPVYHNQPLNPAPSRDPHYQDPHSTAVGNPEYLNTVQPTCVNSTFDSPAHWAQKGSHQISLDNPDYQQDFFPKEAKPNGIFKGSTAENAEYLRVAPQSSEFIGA
In short: as §1

EGFR L858R/C797S = EGFR L858R/C797S (Homo sapiens, UniProt P00533, C797S/L858R); test: Biochemical EGFR kinase inhibition assay (Lance Ultra TR-FRET), double mutant L858R/C797S
Chain of EGFR L858R/C797S (P00533 25-1210 C797S/L858R): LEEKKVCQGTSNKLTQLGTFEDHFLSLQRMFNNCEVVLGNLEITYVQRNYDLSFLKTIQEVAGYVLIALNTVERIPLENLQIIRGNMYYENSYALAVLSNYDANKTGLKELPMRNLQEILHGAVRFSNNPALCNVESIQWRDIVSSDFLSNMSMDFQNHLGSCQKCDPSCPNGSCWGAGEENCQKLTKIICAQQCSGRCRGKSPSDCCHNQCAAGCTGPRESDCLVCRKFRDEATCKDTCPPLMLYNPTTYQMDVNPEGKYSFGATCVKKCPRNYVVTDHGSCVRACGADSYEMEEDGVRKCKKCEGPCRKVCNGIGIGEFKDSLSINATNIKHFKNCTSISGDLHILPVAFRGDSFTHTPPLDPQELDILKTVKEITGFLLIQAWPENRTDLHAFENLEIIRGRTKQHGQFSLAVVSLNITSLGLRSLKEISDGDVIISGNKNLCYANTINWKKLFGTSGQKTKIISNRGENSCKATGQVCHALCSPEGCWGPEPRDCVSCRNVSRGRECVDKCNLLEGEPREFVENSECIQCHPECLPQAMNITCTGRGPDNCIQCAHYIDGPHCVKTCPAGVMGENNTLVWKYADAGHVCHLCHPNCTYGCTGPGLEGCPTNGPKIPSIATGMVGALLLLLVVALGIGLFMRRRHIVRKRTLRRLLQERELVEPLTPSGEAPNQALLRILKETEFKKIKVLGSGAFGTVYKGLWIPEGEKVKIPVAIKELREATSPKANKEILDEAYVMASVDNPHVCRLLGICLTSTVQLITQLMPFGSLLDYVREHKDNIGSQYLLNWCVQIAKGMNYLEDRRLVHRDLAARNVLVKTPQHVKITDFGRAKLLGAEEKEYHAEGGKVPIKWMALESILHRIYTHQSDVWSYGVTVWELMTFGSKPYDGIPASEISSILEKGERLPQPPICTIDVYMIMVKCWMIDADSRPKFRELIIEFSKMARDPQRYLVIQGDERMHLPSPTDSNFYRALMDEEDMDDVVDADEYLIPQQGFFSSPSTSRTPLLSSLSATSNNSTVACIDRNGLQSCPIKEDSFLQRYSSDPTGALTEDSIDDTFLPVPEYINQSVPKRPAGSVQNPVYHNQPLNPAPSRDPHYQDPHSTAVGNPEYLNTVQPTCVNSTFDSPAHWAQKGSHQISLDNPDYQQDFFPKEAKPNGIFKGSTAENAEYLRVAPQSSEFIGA
In short: as §1

EGFR wildtype (WT) = EGFR wildtype (WT) (Homo sapiens, UniProt P00533); test: Biochemical EGFR kinase inhibition assay (Lance Ultra TR-FRET), wildtype
Chain of EGFR wildtype (WT) (P00533 25-1210): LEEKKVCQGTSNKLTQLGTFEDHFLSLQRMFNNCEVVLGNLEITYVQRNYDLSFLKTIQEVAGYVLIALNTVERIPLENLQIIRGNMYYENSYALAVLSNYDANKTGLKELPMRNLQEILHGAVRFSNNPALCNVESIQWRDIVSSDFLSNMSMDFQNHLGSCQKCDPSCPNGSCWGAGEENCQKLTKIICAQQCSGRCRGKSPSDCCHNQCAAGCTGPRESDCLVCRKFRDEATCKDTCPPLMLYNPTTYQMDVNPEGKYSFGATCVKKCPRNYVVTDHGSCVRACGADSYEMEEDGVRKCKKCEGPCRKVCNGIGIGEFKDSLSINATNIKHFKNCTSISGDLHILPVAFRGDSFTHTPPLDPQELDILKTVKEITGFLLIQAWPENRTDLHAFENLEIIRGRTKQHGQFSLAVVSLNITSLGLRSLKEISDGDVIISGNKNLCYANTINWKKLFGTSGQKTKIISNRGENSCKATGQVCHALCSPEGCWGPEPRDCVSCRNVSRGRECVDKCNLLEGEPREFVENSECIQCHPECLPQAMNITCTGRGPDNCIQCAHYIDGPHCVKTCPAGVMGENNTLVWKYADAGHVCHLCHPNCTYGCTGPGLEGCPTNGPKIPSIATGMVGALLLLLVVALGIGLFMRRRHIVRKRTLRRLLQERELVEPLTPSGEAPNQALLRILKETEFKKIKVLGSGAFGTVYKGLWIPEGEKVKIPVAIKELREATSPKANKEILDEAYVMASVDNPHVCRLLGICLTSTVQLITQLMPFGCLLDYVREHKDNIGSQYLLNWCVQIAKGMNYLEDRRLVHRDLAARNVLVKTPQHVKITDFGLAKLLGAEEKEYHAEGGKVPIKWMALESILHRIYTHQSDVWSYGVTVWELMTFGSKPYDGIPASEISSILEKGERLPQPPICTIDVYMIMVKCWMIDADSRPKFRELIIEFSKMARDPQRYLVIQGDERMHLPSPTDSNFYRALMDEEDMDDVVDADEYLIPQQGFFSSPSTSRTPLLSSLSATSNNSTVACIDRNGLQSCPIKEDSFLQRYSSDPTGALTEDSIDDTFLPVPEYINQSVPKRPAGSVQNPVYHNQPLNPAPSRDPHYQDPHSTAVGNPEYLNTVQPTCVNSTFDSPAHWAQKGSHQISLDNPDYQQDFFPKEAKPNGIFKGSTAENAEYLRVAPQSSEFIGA
In short: as §1

[1] = IC50 Del19/T790M/C797S (nM), 100 μM ATP
[2] = Km ATP, read-out: IC50 Del19/T790M/C797S (nM) Km ATP
[3] = IC50 L858R/T790M/C797S (nM), 100 μM ATP
[4] = Km ATP, read-out: IC50 L858R/T790M/C797S (nM) Km ATP
[5] = IC50 Del19/C797S (nM), 100 μM ATP
[6] = Km ATP, read-out: IC50 Del19/C797S (nM) Km ATP
[7] = IC50 L858R/C797S (nM), 100 μM ATP
[8] = Km ATP, read-out: IC50 L858R/C797S (nM) Km ATP
[9] = Km ATP, read-out: IC50 WT (nM) Km ATP

Chain of EGFR Del19/T790M/C797S (P00533 with tags, fused parts or gaps DEL746-750/T790M/C797S): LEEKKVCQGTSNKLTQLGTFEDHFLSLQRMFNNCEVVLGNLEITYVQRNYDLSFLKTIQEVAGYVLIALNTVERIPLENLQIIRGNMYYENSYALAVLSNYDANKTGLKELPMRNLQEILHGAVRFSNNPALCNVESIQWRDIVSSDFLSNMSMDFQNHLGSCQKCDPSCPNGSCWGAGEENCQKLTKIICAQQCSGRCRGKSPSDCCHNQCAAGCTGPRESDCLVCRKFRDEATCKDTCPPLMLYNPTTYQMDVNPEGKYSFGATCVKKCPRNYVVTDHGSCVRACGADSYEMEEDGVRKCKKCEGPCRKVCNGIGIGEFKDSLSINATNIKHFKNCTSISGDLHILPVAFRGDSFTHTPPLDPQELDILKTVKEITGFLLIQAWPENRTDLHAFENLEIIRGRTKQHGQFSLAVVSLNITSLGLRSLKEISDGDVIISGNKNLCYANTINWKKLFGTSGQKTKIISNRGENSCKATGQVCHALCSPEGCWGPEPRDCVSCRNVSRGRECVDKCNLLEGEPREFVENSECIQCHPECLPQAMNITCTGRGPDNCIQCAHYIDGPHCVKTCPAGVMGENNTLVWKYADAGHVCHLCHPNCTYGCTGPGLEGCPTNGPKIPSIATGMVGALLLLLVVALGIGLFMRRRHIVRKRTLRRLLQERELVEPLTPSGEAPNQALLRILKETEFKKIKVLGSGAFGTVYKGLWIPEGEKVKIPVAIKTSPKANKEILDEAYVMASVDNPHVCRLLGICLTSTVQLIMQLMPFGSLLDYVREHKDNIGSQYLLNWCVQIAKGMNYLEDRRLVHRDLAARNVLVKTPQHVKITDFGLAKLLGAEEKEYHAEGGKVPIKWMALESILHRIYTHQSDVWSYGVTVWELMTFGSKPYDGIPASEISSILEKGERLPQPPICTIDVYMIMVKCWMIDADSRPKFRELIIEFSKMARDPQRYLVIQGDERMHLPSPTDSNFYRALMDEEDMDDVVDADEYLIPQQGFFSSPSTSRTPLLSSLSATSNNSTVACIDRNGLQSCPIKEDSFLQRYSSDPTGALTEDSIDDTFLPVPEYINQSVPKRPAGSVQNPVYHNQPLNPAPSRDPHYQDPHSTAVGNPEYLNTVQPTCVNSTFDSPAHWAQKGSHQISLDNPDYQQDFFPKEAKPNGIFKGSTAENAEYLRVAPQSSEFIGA

Row | Structure (SMILES) | IC50 (EGFR Del19/T790M/C797S; [1]) [nM] | IC50 (EGFR Del19/T790M/C797S; [2]) [nM] | IC50 (EGFR L858R/T790M/C797S; [3]) [nM] | IC50 (EGFR L858R/T790M/C797S; [4]) [nM] | IC50 (EGFR Del19/C797S; [5]) [nM] | IC50 (EGFR Del19/C797S; [6]) [nM] | IC50 (EGFR L858R/C797S; [7]) [nM] | IC50 (EGFR L858R/C797S; [8]) [nM] | IC50 (EGFR wildtype (WT); IC50 WT (nM), 100 μM ATP) [nM] | IC50 (EGFR wildtype (WT); [9]) [nM]
1 | Cn1cc(C#Cc2cnc(Nc3ccnc(-c4cnn(S(=O)(=O)C5CC5)c4)n3)cc2NC2CCCC(F)C2)cn1 (stereo not drawn) [Example 74, N^2-(2-(1-(Cyclopropylsulfonyl)-1H-pyrazol-4-yl)pyrimidin-4-yl)-N^4-(3-fluorocyclohexyl)-5-((1-methyl-1H-pyrazol-4-yl)ethynyl)pyridine-2,4-diamine] | 4.7 |  | 13.6 |  | 123 |  | 181 |  | > 10000 | 
2 | Cn1cc(C#Cc2cnc(Nc3ccnc(-c4cnn(S(=O)(=O)C5CC5)c4)n3)cc2N2CCCC(O)CC2)cn1 (stereo not drawn) [Example 77, 1-(2-((2-(1-(Cyclopropylsulfonyl)-1H-pyrazol-4-yl)pyrimidin-4-yl)amino)-5-((1-methyl-1H-pyrazol-4-yl)ethynyl)pyridin-4-yl)azepan-4-ol] | 0.6 | 0.9 | 3.6 | 0.5 | 6.3 | 5 | 357 | 14.1 | > 10000 | 97
3 | CN(C)CCNC1CCN(c2cc(Nc3ccnc(-c4cnn(S(=O)(=O)C5CC5)c4)n3)ncc2C#Cc2cnn(C(F)(F)F)c2)CC1 [Example 143, N^1-(1-(2-((2-(1-(Cyclopropylsulfonyl)-1H-pyrazol-4-yl)pyrimidin-4-yl)amino)-5-((1-(trifluoromethyl)-1H-pyrazol-4-yl)ethynyl)pyridin-4-yl)piperidin-4-yl)-N^2,N^2-dimethylethane-1,2-diamine] | 0.5 | 0.5 | 0.9 | 0.3 | 1.9 | 1.2 | 83.5 | 1.8 | > 10000 | 14.3
4 | CN(C)Cc1ccc(CNc2cc(Nc3ccnc(-c4cnn(S(=O)(=O)C5CC5)c4)n3)ncc2C#Cc2cnn(C)c2)cc1 [Example 50, N^2-(2-(1-(Cyclopropylsulfonyl)-1H-pyrazol-4-yl)pyrimidin-4-yl)-N^4-(4-((dimethylamino)methyl)benzyl)-5-((1-methyl-1H-pyrazol-4-yl)ethynyl)pyridine-2,4-diamine] |  | 0.9 |  | 4.5 |  | 128 |  | 130 |  | 362

More lines, in order of falling IC50 (EGFR Del19/T790M/C797S; [1]), values ahead:

Row | IC50 (EGFR Del19/T790M/C797S; [1]) [nM] | IC50 (EGFR Del19/T790M/C797S; [2]) [nM] | IC50 (EGFR L858R/T790M/C797S; [3]) [nM] | IC50 (EGFR L858R/T790M/C797S; [4]) [nM] | IC50 (EGFR Del19/C797S; [5]) [nM] | IC50 (EGFR Del19/C797S; [6]) [nM] | IC50 (EGFR L858R/C797S; [7]) [nM] | IC50 (EGFR L858R/C797S; [8]) [nM] | IC50 (EGFR wildtype (WT); IC50 WT (nM), 100 μM ATP) [nM] | IC50 (EGFR wildtype (WT); [9]) [nM] | Structure (SMILES)
5 | 0.3 | 0.3 | 0.4 | 0.1 | 1.3 | 1 | 8.7 | 0.9 | 2940 | 7.8 | CN(C)CCNC1CCN(c2cc(Nc3ccnc(-c4cnn(S(=O)(=O)C5CC5)c4)n3)ncc2C#Cc2cnn(C3CCOCC3)c2)CC1 [Example 138, N^1-(1-(2-((2-(1-(Cyclopropylsulfonyl)-1H-pyrazol-4-yl)pyrimidin-4-yl)amino)-5-((1-(tetrahydro-2H-pyran-4-yl)-1H-pyrazol-4-yl)ethynyl)pyridin-4-yl)piperidin-4-yl)-N^2,N^2-dimethylethane-1,2-diamine]
6 | 0.3 |  | 2.7 |  | 3.3 |  | 21.5 |  | > 10000 |  | CN(C)CC1(C)CCN(c2cc(Nc3ccnc(-c4cnn(S(=O)(=O)C5CC5)c4)n3)ncc2C#CC2CCN(C(=O)C(F)(F)F)C2)CC1 (stereo not drawn) [Example 412, 1-(3-((6-((2-(1-(Cyclopropylsulfonyl)-1H-pyrazol-4-yl)pyrimidin-4-yl)amino)-4-(4-((dimethylamino)methyl)-4-methylpiperidin-1-yl)pyridin-3-yl)ethynyl)pyrrolidin-1-yl)-2,2,2-trifluoroethan-1-one]
